From patent US11952611B2, “Methods and systems for detection of antibiotic resistance” (Laboratory Corporation of America Holdings, priority 2017, dated 2024)
Like-named read-outs stand apart in the source and are kept apart here.

Key:
E. coli O157:H7 = assay type: cell-based; details: for signal reduction as compared to controls: 30 min antibiotic then 120 min phage
MSSA = assay: Recombinant phage luciferase assay, oxacillin vs cefoxitin (Table 1), MSSA strains; assay type: cell-based, Staphylococcus aureus
Protocol: (§1) Bacterial strains were serially diluted to approximately 1×10^3 CFU/mL and transferred to a 96-well plate at 135 μL per well. 15 μL of oxacillin or cefoxitin were added to the wells to reach a final concentration of 1.0 μg/mL or 2.0 μg/mL of oxicillin or 2.0 μg/mL, 4.0 μg/mL, 8.0 μg/mL, or 10.0 μg/mL of cefoxitin. The plate was then sealed and incubated at 37° C. for 2 hours. 10 μL of recombinant phage (1.6×10^8 pfu/mL) was added to each well. The plate was then re-sealed and incubated at 37° C. for 2 hours. A master mix was made containing 15 μL 5× lysis buffer, 50 μL luciferase assay buffer, and 1 μL luciferase substrate per well. 65 μL of master mix was added to each well. Luminescence from the reactions was read on a GLOMAX® Navigator and relative luminal units (RLU) for each reaction were analyzed. RLU values three times greater than an established background RLU level for LB (>750 RLU) were considered positive. The results, shown in Table 1, indicate that the recombinant phage are capable of detecting the tested bacterial strains.

MRSA = assay: Recombinant phage luciferase assay, oxacillin vs cefoxitin (Table 1), MRSA strains; assay type: cell-based, Staphylococcus aureus
Protocol: as §1

[1] = strain 12600 MSSA, detected CFU 389
[2] = strain AR0484 MSSA, detected CFU 153
[3] = strain AR0488 MSSA, detected CFU 285
[4] = strain AR0491 MSSA, detected CFU 300
[5] = strain AR0463 MRSA, detected CFU 419
[6] = strain AR0465 MRSA, detected CFU 111
[7] = strain AR0472 MRSA, detected CFU 190
[8] = strain AR0476 MRSA, detected CFU 194
[9] = strain AR0481 MRSA, detected CFU 43
[10] = strain BAA-1720 MRSA, detected CFU 201

## CN[C@H](CC(C)C)C(=O)N[C@H]1C(=O)N[C@@H](CC(N)=O)C(=O)N[C@H]2C(=O)N[C@H]3C(=O)N[C@H](C(=O)N[C@H](C(=O)O)c4cc(O)cc(O)c4-c4cc3ccc4O)[C@H](O)c3ccc(c(Cl)c3)Oc3cc2cc(c3O[C@@H]2O[C@H](CO)[C@@H](O)[C@H](O)[C@H]2O[C@H]2C[C@](C)(N)[C@H](O)[C@H](C)O2)Oc2ccc(cc2Cl)[C@H]1O [vancomycin]
E. coli O157:H7
  cells resistant or sensitive: resistant
E. coli O157:H7; 10 μg/mL, 25 μg/mL, 50 μg/mL, or 100 μg/mL
  signal change upon exposure: signals increased

## CC1(C)S[C@@H]2[C@H](NC(=O)[C@H](N)c3ccccc3)C(=O)N2[C@H]1C(=O)O [ampicillin]
E. coli O157:H7
  cells resistant or sensitive: sensitive
E. coli O157:H7; 10 μg/mL
  signal reduction as compared to controls: about 100 fold
E. coli O157:H7; 25 μg/mL
  signal reduction as compared to controls: ~1400 fold
E. coli O157:H7; 50 μg/mL
  signal reduction as compared to controls: ~2200 fold

## Cc1onc(-c2ccccc2)c1C(=O)N[C@@H]1C(=O)N2[C@@H]1SC(C)(C)[C@@H]2C(=O)O [Oxacillin, oxacillin]
MSSA; several MSSA strains
  detection after incubation with oxacillin: no detection
MSSA; [1]
  Oxacillin (RLU) 1 ug/mL: 1459 RLU
  Oxacillin (RLU) 2 ug/mL: 697 RLU
MSSA; [2]
  Oxacillin (RLU) 1 ug/mL: 268 RLU
  Oxacillin (RLU) 2 ug/mL: 219 RLU
MSSA; [3]
  Oxacillin (RLU) 1 ug/mL: 228 RLU
  Oxacillin (RLU) 2 ug/mL: 198 RLU
MSSA; [4]
  Oxacillin (RLU) 1 ug/mL: 245 RLU
  Oxacillin (RLU) 2 ug/mL: 221 RLU
MRSA; several MRSA strains
  detection after incubation with oxacillin: no detection
MRSA; [5]
  Oxacillin (RLU) 1 ug/mL: 426 RLU
  Oxacillin (RLU) 2 ug/mL: 353 RLU
MRSA; [6]
  Oxacillin (RLU) 1 ug/mL: 4944 RLU
  Oxacillin (RLU) 2 ug/mL: 4965 RLU
MRSA; [7]
  Oxacillin (RLU) 1 ug/mL: 348 RLU
  Oxacillin (RLU) 2 ug/mL: 281 RLU
MRSA; [8]
  Oxacillin (RLU) 1 ug/mL: 553 RLU
  Oxacillin (RLU) 2 ug/mL: 212 RLU
MRSA; [9]
  Oxacillin (RLU) 1 ug/mL: 467 RLU
  Oxacillin (RLU) 2 ug/mL: 268 RLU
MRSA; [10]
  Oxacillin (RLU) 1 ug/mL: 23810 RLU
  Oxacillin (RLU) 2 ug/mL: 22560 RLU
